One test relates to αvβ3. The note with it: cited from earlier work.
Test [1] has as its target integrin αvβ3 (Homo sapiens) (UniProt P06756). The note with it: cited from earlier work.
In test [2] the target is T1, DNA:PNA-D5 (15 c(RGDfK) ligands) (also: 15 copies conjugated via PEG/squarate linker to LKγ-PNA:DNA scaffold).
T1 chain: cyclo(RGD[dF]K)
In words: 125I-echistatin competitive displacement on C32 cells.

Square brackets hold non-standard residues; d marks the D form.

We go through three molecules from publication PMC3518395 (Nature communications, 2012).

The term Kd denotes the free concentration of one partner at which half of the binding sites on the other are occupied at equilibrium, for simple one-to-one binding.

With Echistatin, the “echistatin association constant for binding to αvβ3 integrin” value in the test with αvβ3 (published value, fixed in the fit) is 3.33e+09 M. Further, the Kd at αvβ3 (read-out: Kd of echistatin for αvβ3) was 0.3 nM. For echistatin (from UniProt P17347), in test [1], the Kd is 0.3 nM.

B1: integrin αvβ3 (protein)
chain 1: FNLDVDSPAEYSGPEGSYFGFAVDFFVPSASSRMFLLVGAPKANTTQPGIVEGGQVLKCDWSSTRRCQPIEFDATGNRDYAKDDPLEFKSHQWFGASVRSKQDKILACAPLYHWRTEMKQEREPVGTCFLQDGTKTVEYAPCRSQDIDADGQGFCQGGFSIDFTKADRVLLGGPGSFYWQGQLISDQVAEIVSKYDPNVYSIKYNNQLATRTAQAIFDDSYLGYSVAVGDFNGDGIDDFVSGVPRAARTLGMVYIYDGKNMSSLYNFTGEQMAAYFGFSVAATDINGDDYADVFIGAPLFMDRGSDGKLQEVGQVSVSLQRASGDFQTTKLNGFEVFARFGSAIAPLGDLDQDGFNDIAIAAPYGGEDKKGIVYIFNGRSTGLNAVPSQILEGQWAARSMPPSFGYSMKGATDIDKNGYPDLIVGAFGVDRAILYRARPVITVNAGLEVYPSILNQDNKTCSLPGTALKVSCFNVRFCLKADGKGVLPRKLNFQVELLLDKLKQKGAIRRALFLYSRSPSHSKNMTISRGGLMQCEELIAYLRDESEFRDKLTPITIFMEYRLDYRTAADTTGLQPILNQFTPANISRQAHILLDCGEDNVCKPKLEVSVDSDQKKIYIGDDNPLTLIVKAQNQGEGAYEAELIVSIPLQADFIGVVRNNEALARLSCAFKTENQTRQVVCDLGNPMKAGTQLLAGLRFSVHQQSEMDTSVKFDLQIQSSNLFDKVSPVVSHKVDLAVLAAVEIRGVSSPDHVFLPIPNWEHKENPETEEDVGPVVQHIYELRNNGPSSFSKAMLHLQWPYKYNNNTLLYILHYDIDGPMNCTSDMEINPLRIKISSLQTTEKNDTVAGQGERDHLITKRDLALSEGDIHTLGCGVAQCLKIVCQVGRLDRGKSAILYVKSLLWTETFMNKENQNHSYSLKSSASFNVIEFPYKNLPIEDITNSTLVTTNVTWGIQPAPMPV
chain 2: GPNICTTRGVSSCQQCLAVSPMCAWCSDEALPLGSPRCDLKENLLKDNCAPESIEFPVSEARVLEDRPLSDKGSGDSSQVTQVSPQRIALRLRPDDSKNFSIQVRQVEDYPVDIYYLMDLSYSMKDDLWSIQNLGTKLATQMRKLTSNLRIGFGAFVDKPVSPYMYISPPEALENPCYDMKTTCLPMFGYKHVLTLTDQVTRFNEEVKKQSVSRNRDAPEGGFDAIMQATVCDEKIGWRNDASHLLVFTTDAKTHIALDGRLAGIVQPNDGQCHVGSDNHYSASTTMDYPSLGLMTEKLSQKNINLIFAVTENVVNLYQNYSELIPGTTVGVLSMDSSNVLQLIVDAYGKIRSKVELEVRDLPEELSLSFNATCLNNEVIPGLKSCMGLKIGDTVSFSIEAKVRGCPQEKEKSFTIKPVGFKDSLIVQVTFDCDCACQAQAEPNSHRCNNGNGTFECGVCRCGPGWLGSQCECSEEDYRPSQQDECSPREGQPVCSQRGECLCGQCVCHSSDFGKITGKYCECDDFSCVRYKGEMCSGHGQCSCGDCLCDSDWTGYYCNCTTRTDTCMSSNGLLCSGRGKCECGSCVCIQPGSYGDTCEKCPTCPDACTFKKECVECKKFDRGALHDENTCNRYCRDEIESVKELKDTGKDAVNCTYKNEDDCVVRFQYYEDSSGKSILYVVEEPECPKGPD
As for B1, in test [2], the Kd was 0.16 nM.
